According to ChEMBL document CHEMBL4813981, “Synthesis and in vitro antibacterial activity of new aminothiazole-oximepiperidone cephalosporins” (2021):
In brackets after ≈: the same amount, converted by molar mass.

Experiments:
Escherichia coli [1] = assay: Antibacterial activity against Escherichia coli 15-4 overexpressing extended spectrum beta-lactamases assessed as reduction in bacterial growth; type: functional
Klebsiella pneumoniae [2] = assay: Antibacterial activity against Klebsiella pneumoniae ATCC 700603 assessed as reduction in bacterial growth in the presence of Avibactam; type: functional
Enterobacter cloacae [3] = assay: Antibacterial activity against Enterobacter cloacae 17-6 assessed as reduction in bacterial growth; type: functional
Pseudomonas aeruginosa [4] = assay: Antibacterial activity against Carbapenem- sensitive Pseudomonas aeruginosa 17-9 assessed as reduction in bacterial growth; type: functional
Acinetobacter baumannii [5] = assay: Antibacterial activity against Carbapenem- resistant Acinetobacter baumannii 17-12 assessed as reduction in bacterial growth in the presence of Avibactam; type: functional
Klebsiella pneumoniae [6] = assay: Antibacterial activity against Carbapenem- resistant Klebsiella pneumoniae KR 15-5 assessed as reduction in bacterial growth in the presence of Avibactam; type: functional
Klebsiella pneumoniae [7] = assay: Antibacterial activity against Carbapenem- resistant Klebsiella pneumoniae KR 15-7 assessed as reduction in bacterial growth in the presence of Avibactam; type: functional
Klebsiella pneumoniae [8] = assay: Antibacterial activity against Carbapenem- resistant Klebsiella pneumoniae KR 15-12 assessed as reduction in bacterial growth in the presence of Avibactam; type: functional
Pseudomonas aeruginosa [9] = assay: Antibacterial activity against Carbapenem- resistant Pseudomonas aeruginosa 17-8 assessed as reduction in bacterial growth in the presence of Avibactam; type: functional
Klebsiella pneumoniae [10] = assay: Antibacterial activity against ESBLs positive Carbapenem-sensitive Klebsiella pneumoniae 17-1 assessed as reduction in bacterial growth in the presence of Avibactam; type: functional
Klebsiella pneumoniae [11] = assay: Antibacterial activity against ESBLs positive Carbapenem-sensitive Klebsiella pneumoniae 17-2 assessed as reduction in bacterial growth in the presence of Avibactam; type: functional
Klebsiella pneumoniae [12] = assay: Antibacterial activity against ESBLs positive Carbapenem-sensitive Klebsiella pneumoniae 17-12 assessed as reduction in bacterial growth in the presence of Avibactam; type: functional
Klebsiella pneumoniae [13] = assay: Antibacterial activity against ESBLs negative Carbapenem-sensitive Klebsiella pneumoniae 17-18 assessed as reduction in bacterial growth in the presence of Avibactam; type: functional
Escherichia coli [14] = assay: Antibacterial activity against ESBLs positive Carbapenem-sensitive Escherichia coli 17-5 assessed as reduction in bacterial growth in the presence of Avibactam; type: functional
Escherichia coli [15] = assay: Antibacterial activity against ESBLs positive Carbapenem-sensitive Escherichia coli 17-6 assessed as reduction in bacterial growth in the presence of Avibactam; type: functional
Escherichia coli [16] = assay: Antibacterial activity against ESBLs positive Carbapenem-sensitive Escherichia coli 17-10 assessed as reduction in bacterial growth in the presence of Avibactam; type: functional
Enterobacter cloacae [17] = assay: Antibacterial activity against Enterobacter cloacae 17-5 assessed as reduction in bacterial growth in the presence of Avibactam; type: functional
Enterobacter cloacae [18] = assay: Antibacterial activity against Enterobacter cloacae 17-9 assessed as reduction in bacterial growth in the presence of Avibactam; type: functional
Enterobacter cloacae [19] = assay: Antibacterial activity against Enterobacter cloacae 17-10 assessed as reduction in bacterial growth in the presence of Avibactam; type: functional
Klebsiella aerogenes [20] = assay: Antibacterial activity against Enterobacter aerogenes 17-3 assessed as reduction in bacterial growth in the presence of Avibactam; type: functional
Pseudomonas aeruginosa [21] = assay: Antibacterial activity against Carbapenem- sensitive Pseudomonas aeruginosa 17-10 assessed as reduction in bacterial growth in the presence of Avibactam; type: functional
Klebsiella pneumoniae [22] = assay: Bactericidal activity against Carbapenem- resistant Klebsiella pneumoniae KR 15-6 assessed as reduction in bacterial growth; type: functional
Klebsiella pneumoniae [23] = assay: Bactericidal activity against ESBLs negative Carbapenem-sensitive Klebsiella pneumoniae 17-17 assessed as reduction in bacterial growth; type: functional
Pseudomonas aeruginosa [24] = assay: Bactericidal activity against carbapenem-sensitive Pseudomonas aeruginosa 17-26 assessed as reduction in bacterial growth; type: functional
Pseudomonas aeruginosa [25] = assay: Bactericidal activity against Pseudomonas aeruginosa ATCC 27853 assessed as reduction in bacterial growth; type: functional
Klebsiella pneumoniae [26] = assay: Ratio of MBC to MIC for Carbapenem- resistant Klebsiella pneumoniae KR 15-6 assessed as reduction in bacterial growth; type: functional
Klebsiella pneumoniae [27] = assay: Ratio of MBC to MIC for ESBLs positive Carbapenem-sensitive Klebsiella pneumoniae 17-6 assessed as reduction in bacterial growth; type: functional
Klebsiella pneumoniae [28] = assay: Ratio of MBC to MIC for ESBLs negative Carbapenem-sensitive Klebsiella pneumoniae 17-17 assessed as reduction in bacterial growth; type: functional
Escherichia coli [29] = assay: Ratio of MBC to MIC for ESBLs positive Carbapenem-sensitive Escherichia coli 17-3 assessed as reduction in bacterial growth; type: functional
Escherichia coli [30] = assay: Ratio of MBC to MIC for ESBLs positive Carbapenem-sensitive Escherichia coli 17-10 assessed as reduction in bacterial growth; type: functional
Enterobacter cloacae [31] = assay: Ratio of MBC to MIC for Enterobacter cloacae 17-8 assessed as reduction in bacterial growth; type: functional
Enterobacter cloacae [32] = assay: Ratio of MBC to MIC for Enterobacter cloacae 17-10 assessed as reduction in bacterial growth; type: functional
Pseudomonas aeruginosa [33] = assay: Ratio of MBC to MIC for carbapenem-sensitive Pseudomonas aeruginosa 17-29 assessed as reduction in bacterial growth; type: functional
Acinetobacter baumannii [34] = assay: Bactericidal activity against Carbapenem- resistant Acinetobacter baumannii 17-2 assessed as reduction in bacterial growth in the presence of avibactam; type: functional
Klebsiella pneumoniae [35] = assay: Bactericidal activity against Carbapenem- resistant Klebsiella pneumoniae KR 15-4 assessed as reduction in bacterial growth in the presence of avibactam; type: functional
Klebsiella pneumoniae [36] = assay: Bactericidal activity against Klebsiella pneumoniae ATCC BAA-1705 assessed as reduction in bacterial growth in the presence of avibactam; type: functional
Escherichia coli [37] = assay: Ratio of MBC to MIC for ESBLs positive carbapenem-negative Escherichia coli 17-18 assessed as reduction in bacterial growth in the presence of Avibactam; type: functional
Enterobacter cloacae [38] = assay: Ratio of MBC to MIC for Enterobacter cloacae 17-8 assessed as reduction in bacterial growth in the presence of Avibactam; type: functional
Klebsiella aerogenes [39] = assay: Ratio of MBC to MIC for Enterobacter aerogenes 17-1 assessed as reduction in bacterial growth in the presence of Avibactam; type: functional
Pseudomonas aeruginosa [40] = assay: Ratio of MBC to MIC for carbapenem-sensitive Pseudomonas aeruginosa 17-7 assessed as reduction in bacterial growth in the presence of Avibactam; type: functional
Pseudomonas aeruginosa [41] = assay: Ratio of MBC to MIC for carbapenem-sensitive Pseudomonas aeruginosa 17-26 assessed as reduction in bacterial growth in the presence of Avibactam; type: functional
Acinetobacter baumannii [42] = assay: Ratio of MBC to MIC for Acinetobacter baumannii NCTC 13304 assessed as reduction in bacterial growth in the presence of Avibactam; type: functional
Acinetobacter baumannii [43] = assay: Antibacterial activity against Carbapenem- resistant Acinetobacter baumannii 17-3 assessed as reduction in bacterial growth
Klebsiella pneumoniae [44] = assay: Antibacterial activity against Carbapenem- resistant Klebsiella pneumoniae KR 15-4 assessed as reduction in bacterial growth
Acinetobacter baumannii [45] = assay: Bactericidal activity against Carbapenem- resistant Acinetobacter baumannii 17-11 assessed as reduction in bacterial growth; type: functional
Enterobacter cloacae [46] = assay: Bactericidal activity against Enterobacter cloacae 17-3 assessed as reduction in bacterial growth; type: functional
Klebsiella aerogenes [47] = assay: Bactericidal activity against Enterobacter aerogenes 17-3 assessed as reduction in bacterial growth; type: functional

Q: With `Nc1nc(/C(=N/OCc2cc(=O)c(O)cn2O)C(=O)N[C@@H]2C(=O)N3C(C(=O)O)=CCS[C@H]23)cs1` as the molecule, how does the MIC (Escherichia coli [1]) read?
A: The MIC was greater than 64 µg/mL.

Q: And the MIC (Klebsiella pneumoniae [2])?
A: The MIC was 64 µg/mL.

Q: And the MIC (Enterobacter cloacae [3])?
A: The MIC was 2 µg/mL (≈ 3.93 µM).

Q: What about the MIC (Pseudomonas aeruginosa [4]) of the same molecule?
A: The MIC was 4 µg/mL (≈ 7.87 µM).

Q: What about the MIC (Acinetobacter baumannii [5]) of the same molecule?
A: Its MIC is 16 µg/mL.

Q: What about the MIC (Klebsiella pneumoniae [6]) of the same molecule?
A: The MIC was 2 µg/mL.

Q: And the MIC (Klebsiella pneumoniae [7])?
A: The MIC was 1 µg/mL.

Q: What about the MIC (Klebsiella pneumoniae [8]) of the same molecule?
A: The MIC was 4 µg/mL.

Q: What about the MIC (Pseudomonas aeruginosa [9]) of the same molecule?
A: The MIC was 16 µg/mL.

Q: And the MIC (Klebsiella pneumoniae [10])?
A: The MIC was 0.25 µg/mL.

Q: What about the MIC (Klebsiella pneumoniae [11]) of the same molecule?
A: Its MIC is 0.125 µg/mL.

Q: And the MIC (Klebsiella pneumoniae [12])?
A: Its MIC is 0.125 µg/mL.

Q: And the MIC (Klebsiella pneumoniae [13])?
A: Its MIC is 0.06 µg/mL.

Q: And the MIC (Escherichia coli [14])?
A: The MIC was 1 µg/mL.

Q: And the MIC (Escherichia coli [15])?
A: Its MIC is 0.5 µg/mL.

Q: What about the MIC (Escherichia coli [16]) of the same molecule?
A: The MIC was 0.06 µg/mL.

Q: And the MIC (Enterobacter cloacae [17])?
A: The MIC was 4 µg/mL.

Q: And the MIC (Enterobacter cloacae [18])?
A: The MIC was 2 µg/mL.

Q: And the MIC (Enterobacter cloacae [19])?
A: Its MIC is 0.5 µg/mL.

Q: And the MIC (Klebsiella aerogenes [20])?
A: The MIC was 0.5 µg/mL.

Q: And the MIC (Pseudomonas aeruginosa [21])?
A: Its MIC is 2 µg/mL.

Q: What about the MBC (Klebsiella pneumoniae [22]) of the same molecule?
A: Its MBC is 64 µg/mL (≈ 126 µM).

Q: And the MBC (Klebsiella pneumoniae [23])?
A: The MBC was 0.25 µg/mL (≈ 0.492 µM).

Q: And the MBC (Pseudomonas aeruginosa [24])?
A: Its MBC is greater than 16 µg/mL.

Q: What about the MBC (Pseudomonas aeruginosa [25]) of the same molecule?
A: The MBC was 16 µg/mL (≈ 31.5 µM).

Q: And the Ratio (Klebsiella pneumoniae [26])?
A: Its Ratio is 4.

Q: And the Ratio (Klebsiella pneumoniae [27])?
A: The Ratio was 2.

Q: And the Ratio (Klebsiella pneumoniae [28])?
A: The Ratio was 2.

Q: What about the Ratio (Escherichia coli [29]) of the same molecule?
A: Its Ratio is 1.

Q: And the Ratio (Escherichia coli [30])?
A: Its Ratio is 1.

Q: What about the Ratio (Enterobacter cloacae [31]) of the same molecule?
A: Its Ratio is 1.

Q: What about the Ratio (Enterobacter cloacae [32]) of the same molecule?
A: Its Ratio is greater than 8.

Q: What about the Ratio (Pseudomonas aeruginosa [33]) of the same molecule?
A: Its Ratio is 4.

Q: What about the MBC (Acinetobacter baumannii [34]) of the same molecule?
A: Its MBC is 16 µg/mL.

Q: What about the MBC (Klebsiella pneumoniae [35]) of the same molecule?
A: The MBC was 8 µg/mL.

Q: And the MBC (Klebsiella pneumoniae [36])?
A: Its MBC is 2 µg/mL.

Q: What about the Ratio (Escherichia coli [37]) of the same molecule?
A: The Ratio was 2.

Q: What about the Ratio (Enterobacter cloacae [38]) of the same molecule?
A: Its Ratio is 1.

Q: What about the Ratio (Klebsiella aerogenes [39]) of the same molecule?
A: The Ratio was 2.

Q: What about the Ratio (Pseudomonas aeruginosa [40]) of the same molecule?
A: Its Ratio is 1.

Q: What about the Ratio (Pseudomonas aeruginosa [41]) of the same molecule?
A: Its Ratio is 4.

Q: And the Ratio (Acinetobacter baumannii [42])?
A: The Ratio was 1.

Q: And the MIC (Acinetobacter baumannii [43])?
A: Its MIC is greater than 64 µg/mL.

Q: What about the MIC (Klebsiella pneumoniae [44]) of the same molecule?
A: The MIC was greater than 64 µg/mL.

Q: Which results are given for `CC(C)(O/N=C(\C(=O)N[C@@H]1C(=O)N2C(C(=O)[O-])=C(C[n+]3ccccc3)CS[C@H]12)c1csc(N)n1)C(=O)O` [CEFTAZIDIME]?
A: MIC (Escherichia coli [1]): 16 µg/mL (≈ 29.3 µM); MIC (Klebsiella pneumoniae [2]): 4 µg/mL; MIC (Acinetobacter baumannii [5]): 8 µg/mL; MIC (Klebsiella pneumoniae [6]): 2 µg/mL; MIC (Klebsiella pneumoniae [7]): 2 µg/mL; MIC (Klebsiella pneumoniae [8]): 4 µg/mL; MIC (Pseudomonas aeruginosa [9]): 16 µg/mL; MIC (Klebsiella pneumoniae [10]): 1 µg/mL; MIC (Klebsiella pneumoniae [12]): 1 µg/mL; MIC (Klebsiella pneumoniae [13]): 0.125 µg/mL; MIC (Escherichia coli [15]): 0.5 µg/mL; MIC (Escherichia coli [16]): 0.5 µg/mL; MIC (Enterobacter cloacae [17]): 1 µg/mL; MIC (Enterobacter cloacae [19]): 1 µg/mL; MBC (Acinetobacter baumannii [45]): > 64 µg/mL; MBC (Klebsiella pneumoniae [22]): 64 µg/mL (≈ 117 µM); MBC (Enterobacter cloacae [46]): > 16 µg/mL; MBC (Klebsiella aerogenes [47]): 1 µg/mL (≈ 1.83 µM); MBC (Pseudomonas aeruginosa [24]): 8 µg/mL (≈ 14.6 µM); MBC (Pseudomonas aeruginosa [25]): 1 µg/mL (≈ 1.83 µM); MBC (Acinetobacter baumannii [34]): 8 µg/mL; MBC (Klebsiella pneumoniae [35]): 2 µg/mL; MBC (Klebsiella pneumoniae [36]): 8 µg/mL; MIC (Klebsiella pneumoniae [44]): > 64 µg/mL

Q: Which MIC (Enterobacter cloacae [3]) does the source give for `C[C@@H](O)[C@H]1C(=O)N2C(C(=O)O)=C(S[C@@H]3CN[C@H](C(=O)N(C)C)C3)[C@H](C)[C@H]12` [MEROPENEM] here?
A: Its MIC is less than 0.03 µg/mL.

Q: What about the MIC (Pseudomonas aeruginosa [4]) of the same molecule?
A: The MIC was 0.25 µg/mL (≈ 0.652 µM).
